Data as given in patent publication US4699904A, “Tetrazolyl derivatives of β-lactams useful as elastase inhibitors” (Merck & Co., Inc., priority 1985, dated 1987).

Molecular target: T1, Human Polymorphonuclear Leukocyte Elastase (Homo sapiens, UniProt P08246)
T1 construct: Crude extract of human polymorphonuclear leukocytes (PMN) containing elastase activity; from tissue; host or cells: human polymorphonuclear leukocytes (crude extract)
T1 sequence (P08246 30-247 limits assumed): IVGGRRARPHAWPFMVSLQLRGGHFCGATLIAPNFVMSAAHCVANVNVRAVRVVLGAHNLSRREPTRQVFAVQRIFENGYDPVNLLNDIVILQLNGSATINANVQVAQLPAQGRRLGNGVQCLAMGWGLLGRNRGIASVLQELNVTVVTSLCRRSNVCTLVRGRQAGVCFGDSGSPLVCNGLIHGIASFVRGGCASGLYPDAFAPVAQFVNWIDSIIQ
Assay: Inhibition of human polymorphonuclear leukocyte elastase via hydrolysis of N-t-Boc-alanyl-alanyl-prolylalanine-p-nitroanilide
Type: biochemical
Conditions: crude PMN extract, Boc-AAPAN substrate, pH 7.5
Procedure: Protocol Enzyme Assays for the Inhibition of Human Polymorphonuclear Leukocyte Elastase Via Hydrolysis of N-t-Boc-alanyl-alanyl-prolylalanine-p-nitroanilide Reagents:
0.05M TES (N-tris[hydroxymethyl]methyl-2-amino-ethanesulfonic acid) Buffer, pH 7.5.
0.2 mM N-t-Boc-alanyl-alanyl-prolyl-alanine-p-nitroanilide (Boc-AAPAN).
To prepare substrate, the solid (m.w. 550) was first dissolved in 10.0 ml DMSO. Buffer at pH 7.5 was then added to a final volume of 100 ml.
Crude extract of human polymorphonuclear leukocytes (PMN) containing elastase activity.
Inhibitors (cephalosporin sulfone esters) to be tested dissolved in DMSO just before use.
To 1.0 ml of 0.2 mM Boc-AAPAN in a cuvette, 0.01-0.1 ml of DMSO with or without inhibitor was added. After mixing, a measurement was taken at 410 mμ to detect any spontaneous hydrolysis due to presence of test compound. 0.05 Milliliters of PMN extract was then added and the ΔOD/min at 410 mμ was measured and recorded. Beckman model 35 spectrophotometer was used.
Results were reported as ED50, i.e., effective dosage in micrograms per milliliter (μg/ml) for 50% inhibition of the enzyme activity 2 minutes after zero time.
The elastase activity in the crude PMN extract may vary from one preparation to another. A control of each new batch is run, and the volume added in the assay procedure is adjusted according to activity.

[1] = Table II, 50% inhibition 2 minutes after zero time
[2] = Table I, 50% inhibition 2 minutes after zero time
[3] = Table III, upper part, 2 minutes after zero time
[4] = Table III, lower part, 2 minutes after zero time

SMILES	IC50 [1]	IC50 [2]	further results
CO[C@H]1C(=O)N2C(c3nnn(Cc4ccccc4C(=O)O)n3)=C(COC(C)=O)CS(=O)(=O)[C@H]12	628 nM	–	–
CO[C@H]1C(=O)N2C(c3nnn(Cc4ccccc4C(=O)OC(C)(C)C)n3)=C(COC(C)=O)CS(=O)(=O)[C@H]12	562 nM	–	–
CO[C@H]1C(=O)N2C(c3nnn(Cc4ccc(C(=O)O)cc4)n3)=C(COC(C)=O)CS(=O)(=O)[C@H]12 [3-acetoxymethyl-7α-methoxy-4-[2-(-hydroxycarbonylbenzyl)tetrazol-5-yl]-3-cephem-1,1-dioxide]	419 nM	–	–
CO[C@H]1C(=O)N2C(c3nnn(Cc4ccc(C(=O)OC(C)(C)C)cc4)n3)=C(COC(C)=O)CS(=O)(=O)[C@H]12 [3-acetoxymethyl-7α-methoxy-4-[2-(p-t-butoxycarbonylbenzyl)tetrazol-5-yl]-3-cephem-1,1-dioxide]	75 nM	–	–
CO[C@H]1C(=O)N2C(c3nnn[nH]3)=C(COC(=O)N(C)C)CS(=O)(=O)[C@H]12 [R^1=OCH3, A=(CH3)2NCOO, R=H, Q^1=H]	–	5370 nM	–
COc1ccc(Cn2nnnc2C2=C(COC(=O)N(C)C)CS(=O)(=O)[C@@H]3[C@@H](OC)C(=O)N23)cc1 [R^1=OCH3, A=(CH3)2NCOO, R=PMB, Q^1=H]	–	1420 nM	–
CO[C@H]1C(=O)N2C(c3nnn[nH]3)=C(COC(=O)NCc3ccccc3)CS(=O)(=O)[C@H]12 [R^1=OCH3, A=.phi.CH2NHCOO, R=H, Q^1=H, 3-(N-Benzyl-carbamoyloxy-methyl)-7α-methoxy-4-(1H-tetrazol-5-yl)-3-cephem-1,1-dioxide]	–	9210 nM	–
COc1ccc(Cn2nnnc2C2=C(COC(=O)NCc3ccccc3)CS(=O)(=O)[C@@H]3[C@@H](OC)C(=O)N23)cc1 [R^1=OCH3, A=.phi.CH2NHCOO, R=PMB, Q^1=H, 3-(N-benzyl-carbamoyloxy-methyl)-7α-methoxy-4-(1-p-methoxybenzyl-tetrazol-5-yl)-3-cephem-1,1-dioxide]	–	541 nM	–
CO[C@H]1C(=O)N2C(c3nnn[nH]3)=C(COC(C)=O)CS(=O)(=O)[C@H]12 [R^1=OCH3, A=CH3COO, R=H, Q^1=H, 3-Acetoxymethyl-7α-methoxy-4-(tetrazol-5-yl)-3-cephem-1,1-dioxide]	–	58300 nM	–
COc1ccc(Cn2nnnc2C2=C(COC(C)=O)CS(=O)(=O)[C@@H]3[C@@H](OC)C(=O)N23)cc1 [R^1=OCH3, A=CH3COO, R=PMB, Q^1=H, 3-acetoxymethyl-7α-methoxy-4-[1-(p-methoxybenzyl)tetrazol-5-yl]-3-cephem-1,1-dioxide]	–	1730 nM	–
CO[C@H]1C(=O)N2C(c3nnn(CC(=O)O)n3)=C(COC(C)=O)CS(=O)(=O)[C@H]12 [Table II: A=CH3COO, R=CH2COOH, Q^1=H]	7470 nM	–	–
CO[C@H]1C(=O)N2C(c3nnn(C)n3)=C(COC(C)=O)CS(=O)(=O)[C@H]12 [Table II: A=CH3COO, R=CH3, Q^1=H]	560 nM	–	–
COc1ccc(Cn2nnnc2[C@@H]2N3C(=O)[C@@H](NC(=O)C(F)(F)F)C3SC2(C)C)cc1 (some centres unmarked) [drawing 31, n=0]	–	–	IC50 [3]: 4380 nM
COc1ccc(Cn2nnnc2[C@@H]2N3C(=O)[C@@H](NC(=O)C(F)(F)F)C3[S+]([O-])C2(C)C)cc1 (some centres unmarked) [drawing 31, n=1]	–	–	IC50 [3]: 4230 nM
COc1ccc(Cn2nnnc2[C@@H]2N3C(=O)[C@@H](NC(=O)C(F)(F)F)C3S(=O)(=O)C2(C)C)cc1 (some centres unmarked) [drawing 31, n=2]	–	–	IC50 [3]: 1020 nM
COc1ccc(Cn2nnnc2C2N3C(=O)C(NC(=O)C(F)(F)F)C3SC2(C)C)cc1 (centres unmarked) [drawing 32, n=0]	–	–	IC50 [4]: 21900 nM
COc1ccc(Cn2nnnc2C2N3C(=O)C(NC(=O)C(F)(F)F)C3S(=O)(=O)C2(C)C)cc1 (centres unmarked) [drawing 32, n=2]	–	–	IC50 [4]: 409 nM
